Measurements published in ChEMBL document CHEMBL4420073, “Small molecule inhibitors of MUC1 and methods of identifying the same” (2015).
Calls of active or inactive are those of the source. The calls are words filed in the database; no cut-off is given here.

Experiments:
Mucin-1 (Homo sapiens) [1] = target: Mucin-1 (Homo sapiens) (UniProt P15941); assay: Inhibition of His-tagged MUC1-CD dimerization (unknown origin) assessed as decrease in oligomer formation incubated for 1 hr by SDS-polyacrylamide electrophoresis method based luminescence assay
Mucin-1 (Homo sapiens) [2] = target: Mucin-1 (Homo sapiens) (UniProt P15941); assay: Inhibition of MUC1-CD dimerization (unknown origin) expressed in HEK293 cells assessed as disruption of interaction between Flag-MUC1-CD and GFP-MUC1-CD at […] by coimmunoprecipitation assay; type: cell-based
[3] = Drug uptake in human ZR-75-1 cells assessed as mean fluorescence intensity at 5 uM using FITC-tagged peptide incubated for 2 hrs by flow cytometry (reference value: 24); type: ADME, cell-based; conditions: zr-75-1, 2 h
[4] = Drug uptake in human ZR-75-1 cells assessed as mean fluorescence intensity at 5 uM using FITC-tagged peptide incubated for 6 hrs by flow cytometry (reference value: 24); type: ADME, cell-based; conditions: zr-75-1, 6 h
[5] = Drug uptake in human ZR-75-1 cells assessed as mean fluorescence intensity at 5 uM using FITC-tagged peptide incubated for 24 hrs by flow cytometry (reference value: 24); type: ADME, cell-based; conditions: zr-75-1, 24 h
ZR-75-1 [6] = assay: Effect on cellular MUC1-C levels in human ZR-75-1 cells at 5 uM using FITC-tagged peptide by Western blot analysis; type: functional, cell-based
Mucin-1 (Homo sapiens) [7] = target: Mucin-1 (Homo sapiens) (UniProt P15941); assay: Inhibition of MUC1 nuclear import in human ZR-75-1 cells assessed as decrease in nuclear MUC1-C levels at 5 uM by Western blot analysis; type: cell-based
Mucin-1 (Homo sapiens) [8] = target: Mucin-1 (Homo sapiens) (UniProt P15941); assay: Inhibition of MUC1 nuclear import in human MCF7 cells assessed as decrease in nuclear MUC1-C levels at 5 uM by Western blot analysis; type: cell-based
ZR-75-1 [9] = assay: Induction of cell cycle arrest in human ZR-75-1 cells assessed as accumulation at G1 phase at 5 uM incubated for 3 days by propidium iodide staining based flow cytometry (reference value: 64%); type: functional
ZR-75-1 [10] = assay: Induction of cell cycle arrest in human ZR-75-1 cells assessed as accumulation at S phase at 5 uM incubated for 3 days by propidium iodide staining based flow cytometry (reference value: 29%); type: functional
ZR-75-1 [11] = assay: Induction of cell cycle arrest in human ZR-75-1 cells assessed as accumulation at G2 phase at 5 uM incubated for 3 days by propidium iodide staining based flow cytometry (reference value: 7%); type: functional
ZR-75-1 [12] = assay: Induction of cell cycle arrest in human ZR-75-1 cells assessed as accumulation at G1 phase at 5 uM incubated for 4 days by propidium iodide staining based flow cytometry (reference value: 64%); type: functional
ZR-75-1 [13] = assay: Induction of cell cycle arrest in human ZR-75-1 cells assessed as accumulation at S phase at 5 uM incubated for 4 days by propidium iodide staining based flow cytometry (reference value: 29%); type: functional
ZR-75-1 [14] = assay: Induction of cell cycle arrest in human ZR-75-1 cells assessed as accumulation at G2 phase at 5 uM incubated for 4 days by propidium iodide staining based flow cytometry (reference value: 7%); type: functional
ZR-75-1 [15] = assay: Induction of necrosis in human ZR-75-1 cells at 5 uM incubated for 3 days by propidium iodide staining based flow cytometry (reference value: 8%); type: functional
ZR-75-1 [16] = assay: Induction of necrosis in human ZR-75-1 cells at 5 uM incubated for 4 days by propidium iodide staining based flow cytometry (reference value: 8%); type: functional
MCF7 [17] = assay: Induction of cell cycle arrest in human MCF7 cells assessed as accumulation at G1 phase at 5 uM incubated for 3 days by propidium iodide staining based flow cytometry (reference value: 70%); type: functional
MCF7 [18] = assay: Induction of cell cycle arrest in human MCF7 cells assessed as accumulation at S phase at 5 uM incubated for 3 days by propidium iodide staining based flow cytometry (reference value: 21%); type: functional
MCF7 [19] = assay: Induction of cell cycle arrest in human MCF7 cells assessed as accumulation at G2 phase at 5 uM incubated for 3 days by propidium iodide staining based flow cytometry (reference value: 9%); type: functional
MCF7 [20] = assay: Induction of necrosis in human MCF7 cells at 5 uM incubated for 3 days by propidium iodide staining based flow cytometry (reference value: 5%); type: functional
MCF7 [21] = assay: Induction of necrosis in human MCF7 cells at 5 uM incubated for 4 days by propidium iodide staining based flow cytometry (reference value: 5%); type: functional
ZR-75-1 [22] = assay: Growth inhibition in human ZR-75-1 cells assessed as reduction in cell number up to 96 hrs in presence of MUC1 siRNA; type: functional, cell-based
ZR-75-1 [23] = assay: Growth inhibition in human ZR-75-1 cells assessed as reduction in cell number up to 96 hrs in presence of control siRNA; type: functional, cell-based
HEK293 = assay: Growth inhibition of HEK293 cells assessed as reduction in cell number up to 96 hrs; type: cell-based; conditions: human, hek293, 96 h
MCF-10A [24] = assay: Induction of cell cycle arrest in human MCF10A cells assessed as accumulation at S phase at 5 uM incubated for 3 days by propidium iodide staining based flow cytometry (reference value: 38%); conditions: 72 h
MCF-10A [25] = assay: Induction of cell cycle arrest in human MCF10A cells assessed as accumulation at S phase at 5 uM incubated for 4 days by propidium iodide staining based flow cytometry (reference value: 38%); conditions: 96 h
MCF-10A [26] = assay: Growth inhibition in human MCF10A cells assessed as reduction in cell number up to 96 hrs; type: cell-based
[27] = Toxicity in nu/nu mouse assessed as effect on body weight at 50 mg/kg, ip for 11 days measured over next 28 days after stopping drug administration; type: organism-based; conditions: in vivo, 672 h
ZR-75-1 [28] = assay: Antitumor activity against human ZR-75-1 xenografted in nu/nu mouse assessed as reduction in tumor growth at 50 mg/kg/day, ip for 7 days measured on day 7; type: functional, organism-based
ZR-75-1 [29] = assay: Antitumor activity against human ZR-75-1 xenografted in nu/nu mouse assessed as reduction in tumor growth at 50 mg/kg/day, ip for 7 days followed by treatment cessation and measured over next 17 days; type: functional, organism-based
ZR-75-1 [30] = assay: Antitumor activity against human ZR-75-1 xenografted in nu/nu mouse assessed as induction of necrosis in tumor at 50 mg/kg/day, ip for 21 days; type: functional, organism-based
ZR-75-1 [31] = assay: Suppression of MUC1 protein expression in tumor area of human ZR-75-1 xenografted in nu/nu mouse at 50 mg/kg/day, ip for 21 days; type: functional, organism-based
Mucin-1 (Homo sapiens) [32] = target: Mucin-1 (Homo sapiens) (UniProt P15941); assay: Inhibition of biotinylated MUC1-CD dimerization (unknown origin) assessed as decrease in oligomer formation at 100 uM by streptavidin-HRP based assay relative to control

Sequence of Mucin-1 (Homo sapiens) (P15941 24-1097 limits assumed): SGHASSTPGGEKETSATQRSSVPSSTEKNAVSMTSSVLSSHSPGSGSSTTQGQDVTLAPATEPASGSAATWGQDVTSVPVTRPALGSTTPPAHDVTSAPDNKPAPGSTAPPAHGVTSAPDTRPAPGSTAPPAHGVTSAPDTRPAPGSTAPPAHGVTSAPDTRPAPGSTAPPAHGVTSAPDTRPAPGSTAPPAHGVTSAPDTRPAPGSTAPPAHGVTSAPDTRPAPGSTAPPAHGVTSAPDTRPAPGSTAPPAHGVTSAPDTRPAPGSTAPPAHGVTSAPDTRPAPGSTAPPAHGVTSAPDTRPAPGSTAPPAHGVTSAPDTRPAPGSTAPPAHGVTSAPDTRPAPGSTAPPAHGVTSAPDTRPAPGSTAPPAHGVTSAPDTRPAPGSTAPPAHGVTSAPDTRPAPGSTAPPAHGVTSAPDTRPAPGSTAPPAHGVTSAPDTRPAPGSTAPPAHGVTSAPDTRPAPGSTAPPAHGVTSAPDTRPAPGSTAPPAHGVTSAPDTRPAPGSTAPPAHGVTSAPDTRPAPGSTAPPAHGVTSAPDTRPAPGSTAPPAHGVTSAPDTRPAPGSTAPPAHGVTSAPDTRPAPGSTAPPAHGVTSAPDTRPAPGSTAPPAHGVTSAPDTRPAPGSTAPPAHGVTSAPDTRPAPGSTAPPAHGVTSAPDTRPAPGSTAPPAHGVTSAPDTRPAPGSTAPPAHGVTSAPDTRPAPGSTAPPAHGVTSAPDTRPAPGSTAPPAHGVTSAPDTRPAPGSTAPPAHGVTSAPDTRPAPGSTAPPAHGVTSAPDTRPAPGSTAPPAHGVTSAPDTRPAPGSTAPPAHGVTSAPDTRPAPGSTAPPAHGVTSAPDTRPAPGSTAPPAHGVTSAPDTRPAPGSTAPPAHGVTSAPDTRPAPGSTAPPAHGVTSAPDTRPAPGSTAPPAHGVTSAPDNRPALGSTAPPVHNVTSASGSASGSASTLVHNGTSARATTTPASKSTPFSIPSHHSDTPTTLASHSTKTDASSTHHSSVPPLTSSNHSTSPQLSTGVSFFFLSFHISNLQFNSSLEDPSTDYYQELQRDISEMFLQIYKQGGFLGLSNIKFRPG
Sequence of Mucin-1 (Homo sapiens) (P15941 1098-1255 limits assumed): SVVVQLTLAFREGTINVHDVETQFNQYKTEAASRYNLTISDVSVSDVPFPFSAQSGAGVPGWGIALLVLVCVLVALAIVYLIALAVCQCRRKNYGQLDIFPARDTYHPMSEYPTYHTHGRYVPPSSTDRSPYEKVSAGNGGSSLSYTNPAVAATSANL

In the case of `CC[C@H](C)[C@H](NC(=O)[C@H](CC(=O)O)NC(=O)[C@H](CC(C)C)NC(=O)[C@H](CCC(N)=O)NC(=O)CNC(=O)[C@H](Cc1ccc(O)cc1)NC(=O)[C@H](CC(N)=O)NC(=O)[C@H](CCCCN)NC(=O)[C@H](CCCNC(=N)N)NC(=O)[C@H](CCCNC(=N)N)NC(=O)[C@H](CS)NC(=O)[C@H](CCC(N)=O)NC(=O)[C@H](CS)NC(=O)[C@H](CCCNC(=N)N)NC(=O)[C@@H](CCCNC(=N)N)NC(=O)[C@@H](CCCNC(=N)N)NC(=O)[C@@H](CCCNC(=N)N)NC(=O)[C@@H](CCCNC(=N)N)NC(=O)[C@@H](CCCNC(=N)N)NC(=O)[C@@H](CCCNC(=N)N)NC(=O)[C@@H](CCCNC(=N)N)NC(=O)[C@H](N)CCCNC(=N)N)C(=O)N[C@@H](Cc1ccccc1)C(=O)N1CCC[C@H]1C(=O)O`, the inhibition (Mucin-1 (Homo sapiens) [1]) is reported as “Active”, the inhibition (Mucin-1 (Homo sapiens) [2]) is reported as “Active” and the Flu intensity [3] is reported as 145. The Flu intensity [4] was 252, the Flu intensity [5] was 615 and the Activity (ZR-75-1 [6]) was “inactive”. The inhibition (Mucin-1 (Homo sapiens) [7]) was “Active”, the inhibition (Mucin-1 (Homo sapiens) [8]) was “Active” and the Activity (ZR-75-1 [9]) was 29%. The Activity (ZR-75-1 [10]) was 69%, the Activity (ZR-75-1 [11]) was 2% and the Activity (ZR-75-1 [12]) was 49%. It also gave an Activity (ZR-75-1 [13]) of 37%, an Activity (ZR-75-1 [14]) of 14% and an Activity (ZR-75-1 [15]) of 34%. It also gave an Activity (ZR-75-1 [16]) of 74%, an Activity (MCF7 [17]) of 54% and an Activity (MCF7 [18]) of 46%. For the same molecule, the Activity (MCF7 [19]) was 0%, the Activity (MCF7 [20]) was 24% and the Activity (MCF7 [21]) was 44%. For the same molecule, the “growth inhibition (GI)” value (ZR-75-1 [22]) was “inactive”, the “growth inhibition (GI)” value (ZR-75-1 [23]) was “Active” and the “growth inhibition (GI)” value (HEK293) was “Non-Toxic”. For the same molecule, the Activity (MCF-10A [24]) was 42%, the Activity (MCF-10A [25]) was 42% and the “growth inhibition (GI)” value (MCF-10A [26]) was “Non-Toxic”. The Activity [27] was “Non-Toxic”, the Activity (ZR-75-1 [28]) was “Active” and the Activity (ZR-75-1 [29]) was “Active”. The Activity (ZR-75-1 [30]) was “Active” and the Activity (ZR-75-1 [31]) was “Active”.

Work on `CCCc1c(C)c2ccc(OC(=O)C(C)NC(=O)OCc3ccccc3)cc2oc1=O` (stereo not drawn) yielded an inhibition (Mucin-1 (Homo sapiens) [32]) greater than 50%.
